Test results reported in patent US6558900B2, “Regulation of apoptosis and in vitro model for studies thereof” (Emory University, priority 1996, dated 2003).

Test system: hamster liver nuclei
Assay: DNA fragmentation assay (HeLa S-100 incubated with hamster liver nuclei)
Type: biochemical
Conditions: 1 mM nucleotide, 37° C., 2 hr
Description: FIGS. 1A-1D illustrate dATP-dependent activation of CPP32 and DNA fragmentation in vitro. Aliquots (10 μl) of HeLa cell S-100 (50 μg) were incubated alone (lane 1), in the presence of 1 mM ATP (lane 2), or in the presence of 1 mM dATP (lane 3) at 30° C. for 1 hr in a final volume of 20 μl of buffer A. FIG. 1A, samples were subjected to SDS-PAGE and transferred to a nitrocellulose filter, probed with a monoclonal anti-CPP32 antibody, and the antigen/antibody complex was visualized by the ECL method. The filter was exposed to Kodak X-OMAT AR X-ray film for 1 min. In FIG. 1B, an aliquot of 10 μl of in vitro translated, ^35S-labeled PARP was added to each reaction. After 5 min, the samples were subjected to SDS-PAGE and transferred to a nitrocellulose filter. The filter was exposed to film for 2 hr at room temperature. In FIG. 1C, a 5 μl aliquot of in vitro translated, ^35S-labeled SREBP-2 was added to each reaction. After incubation at 30° C. for 30 min, the samples were subjected to SDS-PAGE, the gel was dried and exposed to film for 2 hr at room temperature. […]
FIGS. 2A-2B illustrate the nucleotide specificity for in vitro activation of CPP32 and DNA fragmentation. […] The DNA was isolated, analyzed by 2% agarose gel electrophoresis and visualized by ethidium bromide staining. […]

## Nc1ncnc2c1ncn2[C@H]1C[C@H](O)[C@@H](COP(=O)(O)OP(=O)(O)OP(=O)(O)O)O1 [dATP, deoxyadenosine-5-triphosphate]
  DNA fragmentation in hamster liver nuclei: induced DNA fragmentation
